Laboratory results as given in patent publication US8486924B2, “Taxane delivery system” (Celator Pharmaceuticals, Inc., priority 2007, dated 2013).

Key:
[1] = system: HT29 human colon carcinoma cells
Protocol: Female athymic nude mice (7-8 weeks old) were inoculated subcutaneously with 100 μl HT29 human colon carcinoma cells (2×10^6 cells) using a 26 gauge needle. Mice were randomly grouped (n=6/group) with a mean tumor size between 80 and 120 mg prior to first treatment. […] Subsequent injections were made according to the designated schedule. Tumor length and width measurements, body weight and in life observations were recorded 2-3 times per week. Tumor weight was calculated according to the formula (L×W^2)/2.
The relative efficacies of nanoparticle formulations of 1, 2, 4, 5, 6 and 7 were determined in the HT29 model using a 36 μmol/kg dose on a Q4Dx6 schedule (FIG. 3). Saline was used as a negative control.
(§1) The activity of 7 in POPC/2.5kPS3k nanoparticle formulations relative to paclitaxel was determined by comparing the efficacy of doses ranging from 0.25 to 3 mole equivalents of paclitaxel (FIG. 4) in the HT29 tumor model. Taxol® dosed at 23 μmol/kg on a Q2Dx5 schedule was used as a positive control.
The tumor growth data was analyzed by two methods to determine what dose of 7 would be equivalent to the Taxol® positive control.

[2] = system: A2780 human tumor cell line; assay: MTT growth inhibition, A2780 cells, 72 hours; settings: read-out: IC50 values A2780, prodrug/POPC/2kPS3k (1:1:2) formulations, ± SD
[3] = Maximum tolerated dose on Q2D schedule in HT29 tumor model; type: in vivo, mice; settings: POPC/2.5kPS3k nanoparticle formulation; Q2Dx5 schedule
Protocol: as §1, with “control. The dosing regime was chosen since the greatest efficacy for 7 was observed on a Q2D schedule, which was also optimal for Taxol®, and the maximum tolerated treatment course at this Taxol® dose was 5 injections. The maximum tolerate dose of 7 on this schedule was approximately 3 paclitaxel equivalents (69 μmol/kg).” for “control.”

[4] = mouse, in vivo
Protocol: Athymic nude mice (n=3/timepoint) were injected iv with test samples (10 μl/g body weight, to a maximum of 250 μl). Blood was collected at the designated time point by cardiac puncture and placed into EDTA coated microtainer tubes (BD Biosciences). The tubes were centrifuged at 2800 rpm for 10 minutes. Plasma was recovered and 50 μl aliquots analyzed by HPLC for drug content. Samples containing ^3H—CHE (50 μl) were diluted with PicoFluor40™ scintillation fluid (Packard) and counted on a Beckman-Coulter LS 6500 Multipurpose scintillation counter. The total drug (counts) per mouse in the blood compartment was calculated assuming a plasma volume of 0.04125 mL per gram of body weight.
Elimination studies tracking both the prodrug and the particle were conducted to obtain a more accurate description of the partitioning behavior of the prodrugs in vivo (FIG. 1). Prodrug elimination was followed by HPLC, while particle elimination rates were determined by labeling nanoparticles with tritiated cholesterylhexadecyl ether (3H—CHE).
Formulations comprised of 1/VES/2kPS3k (1:1:2) and 2/VES/2kPS3k (1:1:2) were labeled with trace amounts of ^3H—CHE and plasma levels of both the label and prodrug were monitored in Foxn1^nu mice (FIG. 1, Panel A).
Effect of prodrug partitioning on plasma drug elimination was determined. The prodrug panel was screened using prodrug/POPC/2kPS3k (1:1:2) nanoparticles in Foxn1^nu mice to determine elimination rates for the different prodrug conjugates (FIG. 2). […] Conjugates were formulated at a concentration of 0.7 mg/mL.
In order to estimate the partitioning half-life for each prodrug, it was assumed that 1 tracked the particle elimination rate based on the results discussed above. The elimination of all other prodrugs were then fitted to four parameter double exponential decay curves and normalized against 1.

[5] = co-lipid POPC, prodrug/co-lipid/2.5kPS3k (1:1:2), vortexing 30 seconds
Protocol: The physical stability of formulations was investigated by examining changes in particle size after vortexing prodrug/co-lipid/2.5kPS3k (1:1:2) nanoparticles in water, 150 mM saline or 300 mM sucrose (Table 1). […] The increase in particle size was monitored by using dynamic light scattering to measure the Z average (the intensity weighted mean size of the particle distribution) value for samples before and after vigorous vortexing. The change in the Zave value was used as surrogate readout for the formation of aggregates or precipitates resulting from mechanical instability, where a higher value for ΔZave indicated a higher level of aggregation or precipitation (Table 1).

[6] = prodrug/POPC/2.5kPS3k (1:1:2) nanoparticles in water; volume weighted average
Protocol: The prodrug, co-lipid and stabilizer polymers (typically on a 1:1:2 w/w basis) were dissolved in ethanol/THF (4:1) at a concentration of 40 mg/ml. The solvent was rapidly diluted with water using a four port CVIJ mixer^13, 14 with flow rates set at […] (solvent/water/water/water). Flow rates were controlled using Harvard Apparatus PHD2000 syringe pumps. The resultant solution was then dialyzed against water to remove residual solvent. […] When higher concentrations were required the dialyzed solution was diluted with equi-volumes of 600 mM sucrose and then concentrated using a 100 kD, 0.5 mm lumen, 60 cm path length MidGee hoop cartridge (GE Healthcare Life Sciences, Piscataway, N.J.) with a peristaltic pump. Particle size was determined using a Malvern Zetasizer Nano-ZS particle sizer and reported as volume weighted data.
Formulations were composed of a prodrug, a co-lipid and an amphipathic stabilizer in a weight ratio of 1:1:2, respectively at a concentration of 40 mg per mL of solvent. […] Poly(ethylene glycol)-b-polystyrene (2kPS3k or 2.5kPS3k) was used as the amphipathic stabilizer. Other stabilizers may also be used.

[7] = system: MCF-7 human tumor cell line; settings: read-out: IC50 values MCF-7; prodrug/POPC/2kPS3k (1:1:2) formulations; 72 hours; MTT; ± SD

Structure (SMILES): CCCCCCCCCCCCCCCCCCCCCCOC(=O)COCC(=O)OC(C(=O)OC1CC2(O)C(OC(=O)c3ccccc3)C3C4(OC(C)=O)COC4CC(O)C3(C)C(=O)C(OC(C)=O)C(=C1C)C2(C)C)C(NC(=O)c1ccccc1)c1ccccc1 (stereo not shown) [Prodrug 7, 2′-O-(5″-O-docosanyldiglycoloyl)-paclitaxel]
- dose achieving parity with Taxol (delay in reaching tumor size of 125 mg from start of treatment) ([1]; HT29, Q2Dx5, fitted curve, normalized to Taxol 23 μmol/kg): 1.75 dose equivalents of paclitaxel
- dose achieving parity with Taxol (delay in reaching tumor size of 300 mg relative to saline) ([1]; HT29, Q2Dx5, linear dose response, normalized to Taxol 23 μmol/kg): 1.65 paclitaxel equivalents
- dose achieving equivalent efficacy to Taxol at MTD ([1]; HT29, titration 0.25x to 3x paclitaxel equivalents): approximately 1.7 paclitaxel equivalents
- tumor size at day 60 ([1]; HT29, treated at MTD, Q2Dx5): below 50 mg
- treatment induced delay in reaching a mean tumor size of 500 mm^3 ([1]; HT29 model, 36 μmol/kg, Q4Dx6, nanoparticle formulations): 17 days
- IC50 [2]: 29.5 ± 5.2 nM
- maximum tolerated dose [3]: 69 µmol/kg
- partitioning half life [4]: ~10 h
- ΔZave 150 mM saline ([5]; 150 mM saline): 24 nm
- ΔZave 300 mM sucrose ([5]; 300 mM sucrose): 0 nm
- ΔZave water ([5]; water): 18 nm
- Diameter [6]: 23 nm
- IC50 [7]: 23.5 ± 1.3 nM
